# Measured values: patent US10913736B2 (UNIVERSITY OF WASHINGTON, priority 2014, dated 2021)
# Where “and” joins values, the source holds several entries; their conditions need not be identical. Equal values may be shown once. Read-outs that look alike come from different tables or passages of the source.
# Assays:
# MetRS (T. brucei) = MetRS (T. brucei) (Trypanosoma brucei brucei, UniProt Q38C91); assay: MetRS (T. brucei) ATP depletion assay using Kinase-Glo; type: biochemical
# T. brucei = assay: Growth inhibition assay of T. brucei cell cultures (Alamar Blue, 48 h); type: cell-based
# E. faecium (ATCC 51559) = E. faecium (ATCC 51559) MIC/EC50; type: cell-based
# L. amaz = L. amaz growth inhibition EC50; type: cell-based; conditions: read-out: F) L. amaz EC50
# P. fal (3D37) = P. fal (3D37) growth inhibition EC50; type: cell-based; conditions: read-out: G) P. fal (3D37) EC50
# MetRS (Giardia) = MetRS (Giardia) (Giardia intestinalis, UniProt A8BY75); assay: biochemical; conditions: read-out: D) MetRS (Giardia) aminoacylation assay with modified cpd dilution method IC50
# Chain of MetRS (Giardia) (A8BY75 entry or part of it): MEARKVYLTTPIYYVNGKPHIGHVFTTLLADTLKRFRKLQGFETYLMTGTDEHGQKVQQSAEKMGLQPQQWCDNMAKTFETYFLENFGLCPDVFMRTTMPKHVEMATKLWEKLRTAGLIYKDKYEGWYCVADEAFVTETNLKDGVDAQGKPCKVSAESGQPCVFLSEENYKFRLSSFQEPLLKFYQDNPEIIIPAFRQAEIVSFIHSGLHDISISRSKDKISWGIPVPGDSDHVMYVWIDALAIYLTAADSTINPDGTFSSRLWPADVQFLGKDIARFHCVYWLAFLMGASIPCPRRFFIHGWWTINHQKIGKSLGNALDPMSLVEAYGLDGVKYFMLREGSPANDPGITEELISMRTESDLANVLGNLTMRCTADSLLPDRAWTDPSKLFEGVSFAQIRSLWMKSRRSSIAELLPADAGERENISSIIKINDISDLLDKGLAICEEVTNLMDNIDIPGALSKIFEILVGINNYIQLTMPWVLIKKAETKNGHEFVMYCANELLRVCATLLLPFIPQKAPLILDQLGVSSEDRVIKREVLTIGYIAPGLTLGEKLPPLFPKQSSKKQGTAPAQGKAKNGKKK
# MetRS (S. aureus) = MetRS (S. aureus) (Staphylococcus aureus, UniProt Q5HII6); assay: biochemical; conditions: ATP depletion, Kinase-Glo; read-out: H) MetRS (S. aureus) ATP depletion assay using Kinase-Glo with modified cpd dilution method, IC50
# Chain of MetRS (S. aureus) (Q5HII6 whole entry): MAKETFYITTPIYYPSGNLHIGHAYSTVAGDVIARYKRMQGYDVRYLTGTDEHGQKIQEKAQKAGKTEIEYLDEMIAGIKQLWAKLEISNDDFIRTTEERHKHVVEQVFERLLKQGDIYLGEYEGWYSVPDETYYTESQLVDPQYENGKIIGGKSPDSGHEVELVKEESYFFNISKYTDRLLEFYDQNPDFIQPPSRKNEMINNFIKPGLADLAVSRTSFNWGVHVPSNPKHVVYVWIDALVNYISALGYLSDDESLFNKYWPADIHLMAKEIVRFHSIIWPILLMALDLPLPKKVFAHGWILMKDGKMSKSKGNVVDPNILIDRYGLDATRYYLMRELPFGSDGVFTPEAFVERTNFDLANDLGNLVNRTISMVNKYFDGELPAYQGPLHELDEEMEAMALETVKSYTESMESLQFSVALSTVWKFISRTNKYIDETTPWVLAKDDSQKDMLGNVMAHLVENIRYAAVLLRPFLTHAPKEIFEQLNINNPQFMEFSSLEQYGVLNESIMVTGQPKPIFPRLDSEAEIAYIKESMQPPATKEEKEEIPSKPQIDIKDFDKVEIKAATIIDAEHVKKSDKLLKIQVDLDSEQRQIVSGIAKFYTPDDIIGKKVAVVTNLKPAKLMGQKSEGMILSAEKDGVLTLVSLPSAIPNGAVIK
# T. cruzi = T. cruzi growth inhibition EC50; type: cell-based
# [1] = system: Giardia intestinalis (ATCC 50580); assay: Giardia intestinalis (ATCC 50580) growth inhibition EC50; type: cell-based
# E. faecalis (ATCC 29212) = E. faecalis (ATCC 29212) MIC/EC50; type: cell-based
# S. aureus (ATCC 29213) = S. aureus (ATCC 29213) MIC/EC50; type: cell-based; conditions: Staphylococcus aureus, ATCC29213; S. aureus ATCC 29213; read-out: I) S. aureus (ATCC 29213) MIC/EC50, MIC
# [2] = system: S. aureus MRSA (ATCC 43300); assay: S. aureus MRSA (ATCC 43300) MIC/EC50; type: cell-based; conditions: Staphylococcus aureus; S. aureus MRSA ATCC 43300; read-out: J) S. aureus MRSA (ATCC 43300) MIC/EC50, MIC
# [3] = Trypanosoma brucei; read-out: B) T. brucei EC50
# [4] = Trypanosoma cruzi; read-out: C) T. cruzi EC50
# [5] = Giardia duodenalis, ATCC50580; read-out: E) Giardia intestinalis (ATCC 50580) EC50
# [6] = read-out: E) Giardia intestinalis (ATCC 50580) EC50
# Chain of MetRS (T. brucei) (Q38C91 entry or part of it): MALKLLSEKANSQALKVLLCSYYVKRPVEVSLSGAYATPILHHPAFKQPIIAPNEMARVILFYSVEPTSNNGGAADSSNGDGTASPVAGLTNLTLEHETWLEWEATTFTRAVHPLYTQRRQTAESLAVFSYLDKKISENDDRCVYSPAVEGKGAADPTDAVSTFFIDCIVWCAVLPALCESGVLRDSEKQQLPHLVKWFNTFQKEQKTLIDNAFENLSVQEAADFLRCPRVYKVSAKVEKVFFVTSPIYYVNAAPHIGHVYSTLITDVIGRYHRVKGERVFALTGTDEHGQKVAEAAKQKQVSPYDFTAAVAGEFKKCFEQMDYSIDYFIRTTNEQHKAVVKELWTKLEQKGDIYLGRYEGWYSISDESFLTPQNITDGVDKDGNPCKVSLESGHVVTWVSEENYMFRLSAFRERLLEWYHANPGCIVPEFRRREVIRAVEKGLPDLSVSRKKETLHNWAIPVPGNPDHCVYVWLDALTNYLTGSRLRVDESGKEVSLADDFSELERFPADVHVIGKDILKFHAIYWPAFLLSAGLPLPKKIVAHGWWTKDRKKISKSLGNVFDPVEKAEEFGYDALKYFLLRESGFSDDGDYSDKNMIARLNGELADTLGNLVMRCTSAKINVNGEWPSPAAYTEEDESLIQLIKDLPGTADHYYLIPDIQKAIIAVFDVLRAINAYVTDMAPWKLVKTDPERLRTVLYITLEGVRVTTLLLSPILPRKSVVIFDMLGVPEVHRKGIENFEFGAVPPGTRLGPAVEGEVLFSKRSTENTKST
Compound,IC50 (MetRS (T. brucei)) [nM],EC50 (T. brucei; [3]) [nM],EC50 (T. brucei; read-out: B) T. brucei EC50) [nM],"L) E. faecium (ATCC 51559) MIC/EC50, MIC (E. faecium (ATCC 51559)) [µg/mL]",EC50 (L. amaz),EC50 (P. fal (3D37)) [µM],IC50 (MetRS (Giardia)) [nM],IC50 (MetRS (S. aureus)) [nM],EC50 (T. cruzi; [4]) [nM],"EC50 [1, 5] [nM]","EC50 [1, 6] [nM]","K) E. faecalis (ATCC 29212) MIC/EC50, MIC (E. faecalis (ATCC 29212))",MIC (S. aureus (ATCC 29213)) [µg/mL],EC50 (T. cruzi; read-out: C) T. cruzi EC50) [nM],MIC [2] [µg/mL],"K) E. faecalis (ATCC 29212) MIC/EC50, MIC (ug/ml) (E. faecalis (ATCC 29212))"
"Clc1cc(Cl)cc(CNCCCNc2nc3ncccc3[nH]2)c1 [Compound 1575, N1-(3,5-dichlorobenzyl)-N3-(1H-imidazo[4,5-b]pyridin-2-yl)propane-1,3-diamine]",9,9.36,7.64,0.625,> 10000 nM,7.01,36,35,193,–,–,–,–,–,–,–
"Fc1ccc2nc(NCCCNCc3cc(Cl)cc(Cl)c3)[nH]c2n1 [Compound 1614, [(3,5-dichlorophenyl)methyl][3-({5-fluoro-3H-imidazo[4,5-b]pyridin-2-yl}amino)propyl]amine]",16,–,–,1.25,> 1000 nM,7.71,9,37,39.5,3420,1980,0.625 µg/mL,1.25,35.7,–,–
"C[C@@H](CNCc1cc(Cl)cc(Cl)c1)CNc1nc2cccnc2[nH]1 [Compound 1655, (S)-N1-(3,5-dichlorobenzyl)-N3-(1H-imidazo[4,5-b]pyridin-2-yl)-2-methylpropane-1,3-diamine]",43,11.3,7.97,–,6740 nM,–,–,171,709,–,–,–,10,–,10,–
"C[C@@H](CNCc1cc(Cl)cc(Cl)c1)CNc1nc2nc(F)ccc2[nH]1 [Compound 1673, [(3,5-dichlorophenyl)methyl][(2S)-3-({5-fluoro-3H-imidazo[4,5-b]pyridin-2-yl}amino)-2-methylpropyl]amine]",11,–,–,–,7860 nM and 5710 nM and 8280 nM,–,–,113,1540,–,–,–,5,–,5,–
"O=C(CCOc1ccc(Cl)cc1Cl)NCc1nc2ccccc2[nH]1 [Compound 1683, N-(1H-1,3-benzodiazol-2-ylmethyl)-3-(2,4-dichlorophenoxy)propanamide]",74,8830,–,–,> 1000 nM,–,> 1000,–,> 10000,> 2000,–,–,–,–,–,–
"O=C(NCc1nc2ccccc2[nH]1)OCCc1ccc(Cl)cc1Cl [Compound 1701, 2-(2,4-dichlorophenyl)ethyl N-(1H-1,3-benzodiazol-2-ylmethyl)carbamate]",5,1290,–,–,–,–,–,67,8750,–,–,–,> 10,–,> 10,–
"Fc1ccc2nc(NCCCN[C@@H]3CCOc4c(Cl)cc(Cl)cc43)[nH]c2n1 [Compound 1709, (4R)-6,8-dichloro-N-[3-({5-fluoro-3H-imidazo[4,5-b]pyridin-2-yl}amino)propyl]-3,4-dihydro-2H-1-benzopyran-4-amine]",8,–,–,>0.04,1300 nM and 1130 nM,–,2,19,> 4.57,664,492,–,–,5.05,–,–
"Fc1ccc2nc(NCCCN[C@H]3CCOc4c(Cl)cc(Cl)cc43)[nH]c2n1 [Compound 1711, (4S)-6,8-dichloro-N-[3-({5-fluoro-3H-imidazo[4,5-b]pyridin-2-yl}amino)propyl]-3,4-dihydro-2H-1-benzopyran-4-amine]",752,2820,–,>10,–,–,–,368,–,–,–,–,–,–,–,">10, >10 ug/ml"
"Fc1ccc2nc(NCCCN[C@@H]3CCNc4c(Cl)cc(Cl)cc43)[nH]c2n1 [Compound 1717, (4R)-6,8-dichloro-N-[3-({5-fluoro-3H-imidazo[4,5-b]pyridin-2-yl}amino)propyl]-1,2,3,4-tetrahydroquinolin-4-amine]",28,–,–,>0.04,2850 nM,–,3,28,> 4.57,590,316,> 0.04 µg/mL and 0.079 µg/mL,0.157,3.72,0.157,–
"N[C@@H](CC(=O)NCc1nc2ccccc2[nH]1)Cc1ccc(Cl)cc1Cl [Compound 1720, (R)—N-((1H-benzo[d]imidazol-2-yl)methyl)-3-amino-4-(2,4-dichlorophenyl)butanamide]",70,848,–,–,–,–,–,181,3700,–,–,–,> 10,–,> 10,–
"O=C(/C=C/Oc1ccc(Cl)cc1Cl)NCc1nc2ccccc2[nH]1 [Compound 1729, (2E)-N-(1H-1,3-benzodiazol-2-ylmethyl)-3-(2,4-dichlorophenoxy)prop-2-enamide]",17,119,–,>10,> 1000 nM,–,–,27,> 5000,–,–,–,–,–,–,–
"O=C(Cc1cc(Cl)cc(Cl)c1)N1CCCC(c2nc3cc(Cl)ccc3[nH]2)C1 (stereo not shown) [Compound 1734, 1-(3-(5-chloro-1H-benzo[d]imidazol-2-yl)piperidin-1-yl)-2-(3,5-dichlorophenyl) ethanone]",60,1400,–,–,–,–,–,2440,4910,–,–,–,> 10,–,> 10,–
"Clc1cc(Cl)cc(Cn2cc(Cc3nc4ccccc4[nH]3)nn2)c1 [Compound 1753, 2-({1-[(3,5-dichlorophenyl)methyl]-1H-1,2,3-triazol-4-yl}methyl)-1H-1,3-benzodiazole]",73,2330,–,>10,–,–,–,1100,> 5000,–,–,–,–,–,–,–
"O=C(Cc1cc(Cl)cc(Cl)c1)N1CCCC(c2nc3nc(F)ccc3[nH]2)C1 (stereo not shown) [Compound 1761, 2-(3,5-dichlorophenyl)-1-(3-(5-fluoro-1H-imidazo[4,5-b]pyridin-2-yl)piperidin-1-yl)ethanone]",54,996,–,–,–,–,–,1910,> 5000,–,–,–,> 10,–,> 10,–
"Clc1cc(Cl)cc(CNCCc2nc3ccc(Cl)cc3[nH]2)c1 [Compound 1767, [2-(6-chloro-1H-1,3-benzodiazol-2-yl)ethyl][(3,5-dichlorophenyl)methyl]amine]",51,627,–,–,–,–,–,> 1000,2930,–,–,–,> 10,–,10,–
"O=C(/C=C/Oc1ccc(Cl)cc1Cl)NCc1nc2ccc(F)nc2[nH]1 [Compound 1768, 3-(2,4-Dichloro-phenoxy)-N-(5-fluoro-3H-imidazo[4,5-b]pyridin-2-ylmethyl)-acrylamide]",18,70.2,–,–,> 1000 nM,–,–,30,1690,–,–,–,> 10,–,> 10,–
"O=c1c(NCc2nc3ccccc3[nH]2)c(NCc2ccc(Cl)cc2Cl)c1=O [Compound 1769, 3-[(H-Benzoimidazol-2-ylmethyl)-amino]-4-(2,4-dichloro-benzylamino)-cyclobut-3-ene-1,2-dione]",11,1070,–,–,–,–,–,95,> 5000,–,–,–,> 10,–,> 10,–
